# Reference: ChEMBL document CHEMBL4622872, “Discovery of DS-1971a, a Potent, Selective NaV1.7 Inhibitor” (J Med Chem, 2020)
# Legend:
# [1] = Aqueous thermodynamic solubility of the compound at pH 6.8 measured after 4 hrs by UV-HPLC analysis; format: physicochemical; conditions: buffer
# [2] = Stability of the compound in mouse liver microsomes assessed as parent compound remaining measured after 0.5 hrs; format: ADME, Microsome
# [3] = Distribution coefficient, log D of the compound in 1-octanol and PBS buffer at pH 7.4 measured after 30 mins by LC-MS analysis; format: physicochemical; conditions: 1-octanol/PBS buffer
# [4] = Volume of distribution at steady state in ddy mouse at 1 mg/kg, iv by LC-MS/MS analysis; format: ADME, organism-based; conditions: in vivo, read-out: Vdss
# [5] = Toxicity in Crl:CD1(ICR) mouse assessed as effect on central nervous system by measuring NOEL administered as single dose measured up to 24 hrs by Irwin's test; conditions: in vivo
# [6] = Toxicity in cynomolgus monkey assessed as effect on cardiovascular system by measuring NOEL administered as single dose measured after 1 to 24 hrs by telemetry; design: species or system Macaca fascicularis; conditions: in vivo
# [7] = Chronic toxicity in male Crl:CD1(ICR) mouse assessed as NOAEL administered for 6 months; conditions: in vivo
# [8] = AUC (infinity) in Beagle dog at 1 mg/kg, iv or po by LC-MS/MS analysis; format: ADME, organism-based, Canis lupus familiaris; conditions: in vivo
# [9] = Oral bioavailability in ddy mouse at 1 mg/kg by LC-MS/MS analysis; format: ADME, organism-based; conditions: in vivo
# [10] = Cmax in cynomolgus monkey at 1 mg/kg, iv or po by LC-MS/MS analysis; format: ADME, organism-based, Macaca fascicularis; conditions: in vivo
# [11] = AUC (0 to 24 hrs) in male Crl:CD1(ICR) mouse at 1000 mg/kg administered for 6 months measured 24 hrs post last dose; format: ADME, organism-based; design: dose 1000 mg/kg, time < 24 hr; conditions: in vivo
# [12] = Tmax in male cynomolgus monkey at 1000 mg/kg administered for 9 months measured 24 hrs post last dose with 1 month recovery; format: ADME, organism-based, Macaca fascicularis; conditions: in vivo
# [13] = AUC (infinity) in cynomolgus monkey at 1 mg/kg, iv or po by LC-MS/MS analysis; format: ADME, organism-based, Macaca fascicularis; conditions: in vivo
# [14] = Oral bioavailability in ddy mouse at 3 mg/kg by LC-MS/MS analysis; format: ADME, organism-based; conditions: in vivo
# [15] = Toxicity in Crl:CD1(ICR) mouse assessed as effect on respiratory system by measuring NOEL administered as single dose measured after 0.5 to 24 hrs by WBP method; conditions: in vivo
# [16] = Cmax in female cynomolgus monkey at 1000 mg/kg administered for 9 months measured 24 hrs post last dose with 1 month recovery; format: ADME, organism-based, Macaca fascicularis; design: dose 1000 mg/kg; conditions: in vivo
# [17] = Volume of distribution at steady state in cynomolgus monkey at 1 mg/kg, iv by LC-MS/MS analysis; format: ADME, organism-based, Macaca fascicularis; conditions: in vivo, read-out: Vdss
# [18] = AUC (infinity) in ddy mouse at 1 mg/kg, iv or po by LC-MS/MS analysis; format: ADME, organism-based; conditions: in vivo
# [19] = Stability of the compound in human liver microsomes assessed as parent compound remaining measured after 0.5 hrs; format: ADME, Microsome; conditions: read-out: Stability
# [20] = Clearance in Sprague-Dawley rat at 1 mg/kg, iv by LC-MS/MS analysis; format: ADME, organism-based; conditions: in vivo
# [21] = Chronic toxicity in female cynomolgus monkey assessed as NOAEL administered for 9 months; design: species or system Macaca fascicularis; conditions: in vivo
# [22] = AUC (infinity) in ddy mouse at 3 mg/kg, iv or po by LC-MS/MS analysis; format: ADME, organism-based; conditions: in vivo
# [23] = Cmax in male Crl:CD1(ICR) mouse at 1000 mg/kg administered for 6 months measured 24 hrs post last dose; format: ADME, organism-based; design: dose 1000 mg/kg; conditions: in vivo
# [24] = Half life in Sprague-Dawley rat at 1 mg/kg, iv or po by LC-MS/MS analysis; format: ADME, organism-based; conditions: in vivo
# [25] = Cmax in Beagle dog at 1 mg/kg, iv or po by LC-MS/MS analysis; format: ADME, organism-based, Canis lupus familiaris; conditions: in vivo
# [26] = AUC (0 to 24 hrs) in female Crl:CD1(ICR) mouse at 1000 mg/kg administered for 6 months measured 24 hrs post last dose with 1 month recovery; format: ADME, organism-based; design: dose 1000 mg/kg, time < 24 hr; conditions: in vivo
# [27] = Chronic toxicity in female Crl:CD1(ICR) mouse assessed as NOAEL administered for 6 months; conditions: in vivo
# [28] = Tmax in female Crl:CD1(ICR) mouse at 1000 mg/kg administered for 6 months measured 24 hrs post last dose with 1 month recovery; format: ADME, organism-based; conditions: in vivo
# [29] = Half life in ddy mouse at 3 mg/kg, iv or po by LC-MS/MS analysis; format: ADME, organism-based; conditions: in vivo
# [30] = Stability of the compound in monkey liver microsomes assessed as parent compound remaining measured after 0.5 hrs; format: ADME, Macaca mulatta, Microsome; conditions: rhesus monkey, read-out: Stability
# [31] = Clearance in Beagle dog at 1 mg/kg, iv by LC-MS/MS analysis; format: ADME, organism-based, Canis lupus familiaris; conditions: in vivo
# [32] = Volume of distribution at steady state in Beagle dog at 1 mg/kg, iv by LC-MS/MS analysis; format: ADME, organism-based, Canis lupus familiaris; conditions: in vivo, read-out: Vdss
# [33] = Tmax in ddy mouse at 3 mg/kg, iv or po by LC-MS/MS analysis; format: ADME, organism-based; conditions: in vivo
# [34] = Half life in cynomolgus monkey at 1 mg/kg, iv or po by LC-MS/MS analysis; format: ADME, organism-based, Macaca fascicularis; conditions: in vivo
# [35] = AUC (infinity) in Sprague-Dawley rat at 1 mg/kg, iv or po by LC-MS/MS analysis; format: ADME, organism-based; conditions: in vivo
# [36] = Cmax in Sprague-Dawley rat at 1 mg/kg, iv or po by LC-MS/MS analysis; format: ADME, organism-based; conditions: in vivo
# [37] = Tmax in male Crl:CD1(ICR) mouse at 1000 mg/kg administered for 6 months measured 24 hrs post last dose; format: ADME, organism-based; conditions: in vivo
# [38] = Cmax in male cynomolgus monkey at 1000 mg/kg administered for 9 months measured 24 hrs post last dose with 1 month recovery; format: ADME, organism-based, Macaca fascicularis; design: dose 1000 mg/kg; conditions: in vivo
# [39] = Half life in ddy mouse at 1 mg/kg, iv or po by LC-MS/MS analysis; format: ADME, organism-based; conditions: in vivo
# [40] = Oral bioavailability in cynomolgus monkey at 1 mg/kg by LC-MS/MS analysis; format: ADME, organism-based, Macaca fascicularis; conditions: in vivo
# [41] = AUC (0 to 24 hrs) in female cynomolgus monkey at 1000 mg/kg administered for 9 months measured 24 hrs post last dose with 1 month recovery; format: ADME, organism-based, Macaca fascicularis; design: time < 24 hr, dose 1000 mg/kg; conditions: in vivo
# [42] = Tmax in ddy mouse at 1 mg/kg, iv or po by LC-MS/MS analysis; format: ADME, organism-based; conditions: in vivo
# [43] = Clearance in ddy mouse at 3 mg/kg, iv by LC-MS/MS analysis; format: ADME, organism-based; conditions: in vivo
# [44] = Oral bioavailability in Beagle dog at 1 mg/kg by LC-MS/MS analysis; format: ADME, organism-based, Canis lupus familiaris; conditions: in vivo
# [45] = Cmax in ddy mouse at 3 mg/kg, iv or po by LC-MS/MS analysis; format: ADME, organism-based; conditions: in vivo
# [46] = Tmax in female cynomolgus monkey at 1000 mg/kg administered for 9 months measured 24 hrs post last dose with 1 month recovery; format: ADME, organism-based, Macaca fascicularis; conditions: in vivo
# [47] = Stability of the compound in dog liver microsomes assessed as parent compound remaining measured after 0.5 hrs; format: ADME, Canis lupus familiaris, Microsome; conditions: read-out: Stability
# [48] = Tmax in Sprague-Dawley rat at 1 mg/kg, iv or po by LC-MS/MS analysis; format: ADME, organism-based; conditions: in vivo
# [49] = Stability of the compound in rat liver microsomes assessed as parent compound remaining measured after 0.5 hrs; format: ADME, Microsome; conditions: read-out: Stability
# [50] = Volume of distribution at steady state in Sprague-Dawley rat at 1 mg/kg, iv by LC-MS/MS analysis; format: ADME, organism-based; conditions: in vivo, read-out: Vdss
# [51] = Clearance in ddy mouse at 1 mg/kg, iv by LC-MS/MS analysis; format: ADME, organism-based; conditions: in vivo
# [52] = Toxicity in Crl:CD1(ICR) mouse assessed as effect on spontaneous locomotor activity by measuring NOEL administered as single dose measured at 10 mins interval starting from 2 to 3 hrs; conditions: in vivo
# [53] = Oral bioavailability in Sprague-Dawley rat at 1 mg/kg by LC-MS/MS analysis; format: ADME, organism-based; conditions: in vivo
# [54] = Tmax in Beagle dog at 1 mg/kg, iv or po by LC-MS/MS analysis; format: ADME, organism-based, Canis lupus familiaris; conditions: in vivo
# [55] = Volume of distribution at steady state in ddy mouse at 3 mg/kg, iv by LC-MS/MS analysis; format: ADME, organism-based; conditions: in vivo, read-out: Vdss
# [56] = Clearance in cynomolgus monkey at 1 mg/kg, iv by LC-MS/MS analysis; format: ADME, organism-based, Macaca fascicularis; conditions: in vivo
# [57] = Cmax in ddy mouse at 1 mg/kg, iv or po by LC-MS/MS analysis; format: ADME, organism-based; conditions: in vivo
# [58] = Half life in Beagle dog at 1 mg/kg, iv or po by LC-MS/MS analysis; format: ADME, organism-based, Canis lupus familiaris; conditions: in vivo
# [59] = Cmax in female Crl:CD1(ICR) mouse at 1000 mg/kg administered for 6 months measured 24 hrs post last dose with 1 month recovery; format: ADME, organism-based; design: dose 1000 mg/kg; conditions: in vivo
# [60] = Tmax in cynomolgus monkey at 1 mg/kg, iv or po by LC-MS/MS analysis; format: ADME, organism-based, Macaca fascicularis; conditions: in vivo
# [61] = Toxicity in Crl:CD1(ICR) mouse assessed as effect on motor coordination by measuring NOEL administered as single dose measured after 0.5 to 2 hrs by rotarod test; conditions: in vivo
# [62] = Chronic toxicity in male cynomolgus monkey assessed as NOAEL administered for 9 months; design: species or system Macaca fascicularis; conditions: in vivo
# [63] = AUC (0 to 24 hrs) in male cynomolgus monkey at 1000 mg/kg administered for 9 months measured 24 hrs post last dose with 1 month recovery; format: ADME, organism-based, Macaca fascicularis; design: time < 24 hr, dose 1000 mg/kg; conditions: in vivo
compound,measurement,setting,value
Cn1nccc1[C@H]1CCC[C@@H]1Oc1cc(F)c(S(=O)(=O)Nc2ccncn2)c(F)c1 (racemic),solubility thermodynamic at 4 h,"[1]; pH 6.8, read-out: Therm_solubility",1800 µM
same,remaining at 0.5 h,"[2]; mouse liver microsomes, read-out: Stability",80%
same,logD at 0.5 h,[3],0.1
Cn1nccc1[C@H]1CCCC[C@@H]1Oc1cc(F)c(S(=O)(=O)Nc2ccncn2)cc1Cl [DS-1971],Vd,[4],1.37 L/kg
same,NOAEL at 24 h,[5],1000 mg/kg
same,NOAEL,[6],1000 mg/kg
same,Therm_solubility,"[1]; pH 6.8, 4 h, 4 h",1500 µM
same,NOAEL at 6 months,[7],1000 mg/kg
same,AUC(0-inf),[8],3.23 µM·h
same,bioavailability,[9],15%
same,Cmax,[10],1570 nM
same,AUC(0-t) at 24 h,[11],65.9 µM·h
same,Tmax,[12],1.2 h
same,AUC(0-inf),[13],2.06 µM·h
same,bioavailability,[14],11%
same,NOAEL,[15],1000 mg/kg
same,Cmax,[16],22.5 µM
same,Vd,[17],0.15 L/kg
same,AUC(0-inf),[18],0.0689 µM·h
same,remaining at 0.5 h,[19],66%
same,clearance,[20],47 mL/min/kg
same,Stability,"[2]; microsomes, 0.5 h",92%
same,NOAEL at 9 months,[21],1000 mg/kg
same,AUC(0-inf),[22],0.277 µM·h
same,Cmax,[23],9.44 µM
same,half-life,[24],46.2 min
same,Cmax,[25],1710 nM
same,AUC(0-t) at 24 h,[26],1400 µM·h
same,NOAEL at 6 months,[27],1000 mg/kg
same,Tmax,[28],6 h
same,half-life,[29],92.4 min
same,remaining at 0.5 h,[30],78%
same,clearance,[31],8.7 mL/min/kg
same,Vd,[32],0.57 L/kg
same,Tmax,[33],15 min
same,half-life,[34],221 min
same,AUC(0-inf),[35],0.103 µM·h
same,Cmax,[36],103 nM
same,Tmax,[37],30 min
same,Cmax,[38],28.1 µM
same,half-life,[39],121 min
same,bioavailability,[40],35%
same,AUC(0-t) at 24 h,[41],100 µM·h
same,Tmax,[42],5 min
same,clearance,[43],45.3 mL/min/kg
same,bioavailability,[44],77%
same,Cmax,[45],464 nM
same,Tmax,[46],1.2 h
same,remaining at 0.5 h,[47],95%
same,Tmax,[48],30 min
same,remaining at 0.5 h,[49],94%
same,Vd,[50],1.2 L/kg
same,clearance,[51],78.7 mL/min/kg
same,NOAEL,[52],1000 mg/kg
same,bioavailability,[53],16%
same,Tmax,[54],30 min
same,Vd,[55],0.565 L/kg
same,clearance,[56],6.55 mL/min/kg
same,Cmax,[57],105 nM
same,half-life,[58],240 min
same,Cmax,[59],105 µM
same,Tmax,[60],49.8 min
same,NOAEL,[61],1000 mg/kg
same,NOAEL at 9 months,[62],1000 mg/kg
same,AUC(0-t) at 24 h,[63],146 µM·h
